Results: US6306899A (priority 1999, dated 2001)
Converted amounts (≈) assume the structure as drawn. Read-outs that look alike come from different tables or passages of the source.

Tests used:
[1] = system: HBsAg in Hep3B cells; experiment: Suppression of HBsAg secretion in Hep3B cells, serum-free, 2 days; type: cell-based; conditions: Homo sapiens, 48 h, read-out: EC50 Hep3B (50% reduction of HBsAg secretion)
Source text: (§1) Biological testing results of Helioxanthin and
(§2) its derivatives for suppression of HBsAg
(§3) in HepA2 and Hep3B cells in serum-free condition for 2 days
(§4) The symbol, "**" denotes EC50, the concentration of tested compounds
(§5) which exerted 50% reduction of HBsAg secretion in human hepatoma cells.

[2] = system: HBsAg in HepA2 cells; experiment: Suppression of HBsAg secretion in HepA2 cells, serum-free, 2 days; type: cell-based; conditions: Homo sapiens, HepA2, 48 h, read-out: EC50 HepA2 (50% reduction of HBsAg secretion)
Source text: as §1, §2, §3
The symbol, "*" denotes HepA2, HBV DNA stable transfected HBV dimer DNA.
as §4, §5

[3] = system: HBsAg; experiment: microbe, parasite or virus in culture; type: cell-based, Hepatitis B virus; conditions: for EC50: Hepatitis B virus, 144 h, read-out: Anti-viral activity (ED50) HbsAg; for HbsAg expression inhibition: in words
[4] = Solubility: saturated solution in PBS at room temperature; type: physicochemical; conditions: aqueous buffer
Source text: 3. The symbol "*" denotes the concentration of the saturated solution in
PBS at room temperature.

[5] = system: Yellow Fever virus; experiment: microbe, parasite or virus in culture; type: cell-based
[6] = Cytotoxicity, HepG2 cell growth; type: cell-based; conditions: human, hepg2 cells; 3 days; read-out: Cytotoxicity (IC50) HepG2 cell
Procedure: (§6) To determine the cellular toxicity of the present compounds, the T-lymphoblastoic cell line (CEM) and the HEP-G2 cell line (parent cell line from which 2.2.15 cell line is produced) were used. Cells were subjected to varying concentrations of the drug(s) and cell numbers were determined 3 days post treatment by the method described by Chen, C-H and Cheng, Y-C, J. Biol. Chem., 264, 11934 (1989). Concentrations of the drug which would result in inhibition of cell growth were determined from the plot generated by representing cell numbers corresponding to the individual drug concentrations.

[7] = Cytotoxicity, CEM cell growth; type: cell-based; conditions: human, cem cells; 3 days; read-out: Cytotoxicity (IC50) CEM cell
Procedure: as §6

[8] = system: HBV; experiment: microbe, parasite or virus in culture; type: cell-based, Hepatitis B virus; conditions: for EC50: Hepatitis B virus, 144 h; for inhibition of HBV replication / DNA level: in words
[9] = system: HBV; conditions: background; in words; cited from earlier work
[10] = Yellow fever virus, BHK, 144 h, read-out: Anti-viral activity (ED50) YFV, plaque reduction, BHK cells, 6 days

| SMILES | EC50 [1] | EC50 [2] | EC50 [3] | solubility [4] | EC50 [5, 10] | CC50 at 72 h [6] | CC50 at 72 h [7] | EC50 [8] | also measured |
| --- | --- | --- | --- | --- | --- | --- | --- | --- | --- |
| O=C1OCc2cc3cc4c(cc3c(-c3ccc5c(c3)OCO5)c21)OCO4 [Taiwanin C] | 1 µM | 1.25 µM |  |  |  |  |  |  |  |
| Cc1c(CO)cc2ccc3c(c2c1-c1ccc2c(c1)OCO2)OCO3 [ZHU-IX-122-1, 3-methyl-5,6-methylenedioxy-4-(3',4'-methylenedioxyphenyl)-2-hydroxymethylnapthalene] |  |  | 10 µM | 52.9 µM (≈ 17.8 µg/mL) | > 10 µM | > 30 µM | > 30 µM | 5 µM | HbsAg expression inhibition [3]: inhibit HBV replication and HbsAg expression; inhibition of HBV replication / DNA level [8]: inhibit HBV replication |
| OCc1cc2c(Br)cc3c(c2c(-c2ccc4c(c2)OCO4)c1CO)OCO3 [ZHU-IX-135-1, 2,3-dihydroxymethyl-5-bromo-7,8-methylenedioxy-1-(3', 4'-methylenedioxyphenyl)napthalene] |  |  | 8.5 µM | 24.8 µM (≈ 10.7 µg/mL) | 14 µM | 12 µM | > 30 µM | 3 µM | HbsAg expression inhibition [3]: inhibit HBV replication and HbsAg expression; inhibition of HBV replication / DNA level [8]: inhibit HBV replication |
| O=C1OC(=O)c2c1c(Br)c1cc3c(cc1c2-c1cc2c(cc1Br)OCO2)OCO3 [ZHU-IX-120-2, 1-bromo-6,7-methylenedioxy-4-(2'-bromo-4', 5'-methylenedioxyphenyl)napthalene-2,3-dicarboxylic acid anyhdride] |  |  | > 10 µM | 13.1 µM (≈ 6.81 µg/mL) | > 10 µM | 6 µM | > 30 µM | > 10 µM |  |
| COc1cc2c(OC)c3c(c(-c4ccc5c(c4)OCO5)c2cc1OC)C(=O)OC3 [Justicidin A] | > 12.5 µM | > 12.5 µM |  |  |  |  |  |  |  |
| O=C1OCc2cc3ccc4c(c3c(-c3ccc5c(c3)OCO5)c21)OCO4 [ZHU-IX-139-2, 7,8-methylendioxy-1-(3',4'-methylenedioxyphenyl)-3-hydroxymethylnapthalene-2-carboxylic acid lactone] |  |  | 10 µM | 21 µM (≈ 7.31 µg/mL) | 16 µM | 12 µM | 18 µM | > 10 µM |  |
| O=C(O)c1c(CO)cc2ccc3c(c2c1-c1ccc2c(c1)OCO2)OCO3 [ZHU-IX-153, sodium 7,8-methylenedioxy-1-(3',4'-methylendioxyphenyl)-3-hydroxymethylnapthalene-2-carbonate] |  |  | > 10 µM | 255 µM | > 10 µM | > 30 µM |  | > 10 µM |  |
| Cc1c(C=O)cc2ccc3c(c2c1-c1ccc2c(c1)OCO2)OCO3 [ZHU-IX-189, 5,6-methylenedioxy-4-(3',4'-methylendioxyphenyl)-2-methylnapthalene-3-aldehyde] |  |  | > 10 µM |  | > 25 µM |  |  | > 10 µM |  |
| O=C1OC(=O)c2c1cc1c(Br)cc3c(c1c2-c1cc2c(cc1Br)OCO2)OCO3 [ZHU-IX-120-1, 5-bromo-7,8-methylenedioxy-1-(2'-bromo-4',5'-methylenedioxyphenyl)napthalene-2,3-dicarboxylic acid anhydride] |  |  | > 10 µM | 13.8 µM (≈ 7.18 µg/mL) | > 10 µM | 6 µM | > 30 µM | > 10 µM |  |
| COc1ccc(C2c3cc(OC)c(OC)cc3CC3C(=O)OCC32)cc1OC (centres unmarked) [Conidendrin Methyl Ether] | > 12.5 µM | > 12.5 µM |  |  |  |  |  |  |  |
| COc1cc(-c2c3c(cc4cc(OC)c(OC(C)=O)cc24)C(=O)OC3)ccc1OC(C)=O [Diacetate] | > 12.5 µM | > 12.5 µM |  |  |  |  |  |  |  |
| COc1cc(-c2c3c(cc4cc(OC)c(O)cc24)C(=O)OC3)ccc1O [Dehydroconidendrin] | > 12.5 µM | > 12.5 µM |  |  |  |  |  |  |  |
| OCc1cc2ccc3c(c2c(-c2ccc4c(c2)OCO4)c1CO)OCO3 [ZHU-IX-124-2, 2,3-dihydroxymethyl-5,6-methylenedioxy-4-(3',4'-methylenedioxyphenyl)napthalene] |  |  | 10 µM | 127 µM (≈ 44.8 µg/mL) | > 10 µM | 16 µM | > 30 µM | 10 µM |  |
| O=C(O)c1cc2ccc3c(c2c(-c2ccc4c(c2)OCO4)c1CO)OCO3 [ZHU-IX-157, sodium 5,6-methylenedioxy-4-(3',4'-methylenedioxyphenyl)-3-hydroxymethylnapthalene-2-carbonate] |  |  | 10 µM | 255 µM | 8 µM | 26 µM | > 30 µM | 2.5 µM | activity against the Yellow fever virus ([5]; in words): demonstrated activity against the Yellow fever virus |
| O=C1OCc2c1cc1c(Br)cc3c(c1c2-c1cc2c(cc1Br)OCO2)OCO3 [ZHU-IX-143, 8,2'-dibromo-5,6-methylenedioxy-4-(4',5'-methylenedioxyphenyl)-3-hydroxymethylnapthalene-2-carboxylic acid lactone] |  |  | > 10 µM | 11.9 µM (≈ 6.02 µg/mL) | > 10 µM | 20 µM | > 30 µM | > 10 µM |  |
| Cc1cc2ccc3c(c2c(-c2ccc4c(c2)OCO4)c1C)OCO3 [ZHU-IX-163-2] |  |  | > 10 µM | 18.4 µM (≈ 5.89 µg/mL) | > 10 µM | 17 µM |  | > 10 µM |  |
| COc1cc(C2c3cc(OC(C)=O)c(OC)cc3CC3C(=O)OCC32)ccc1OC(C)=O (centres unmarked) [Conidendrin Diacetate] | > 12.5 µM | > 12.5 µM |  |  |  |  |  |  |  |
| O=C1OC(=O)c2c1cc1cc3c(cc1c2-c1cc2c(cc1Br)OCO2)OCO3 [ZHU-IX-120-3, 6,7-methylenedioxy-1-(2'-bromo-4',5'-methylenedioxyphenyl)napthalene-2,3-dicarboxylic acid anhydride] |  |  | > 10 µM | 11.8 µM (≈ 5.21 µg/mL) | > 10 µM | 11 µM | > 30 µM | > 10 µM |  |
| Nc1nc2c(ncn2CCC(CO)CO)c(=O)[nH]1 [PCV] |  |  |  |  |  |  |  |  | effect on HBV infection [9]: recurrence of HBV after a period of treatment |
| O=C1OCc2c1c(-c1ccc3c(c1)OCO3)c1cc3c(cc1c2O)OCO3 [Taiwanin E] | > 12.5 µM | > 12.5 µM |  |  |  |  |  |  |  |
| CC(=O)Oc1c2c(c(-c3ccc4c(c3)OCO4)c3cc4c(cc13)OCO4)C(=O)OC2 [Taiwanin E acetate] | > 12.5 µM | > 12.5 µM |  |  |  |  |  |  |  |
| Cc1c(C(=O)O)cc2ccc3c(c2c1-c1ccc2c(c1)OCO2)OCO3 [ZHU-X-4] |  |  | > 10 µM |  | > 20 µM |  |  | > 10 µM |  |
| COc1cc2c(OC(C)=O)c3c(c(-c4ccc5c(c4)OCO5)c2cc1OC)C(=O)OC3 [Diphylline Acetate] | > 12.5 µM | > 12.5 µM |  |  |  |  |  |  |  |
| Cc1c(C(=O)O)cc2ccc3c(c2c1-c1ccc2c(c1)OCO2)OCO3 [ZHU-X-10, sodium 5,6-methylenedioxy-4-(3',4'-methylenedioxyphenyl)-2-methylnapthalene-3-carbonate] |  |  |  |  |  |  |  |  | EC50 ([5]; read-out: Anti-viral activity (ED50) YFV, plaque reduction, BHK cells, 6 days, 8640 min): > 25 µM |
| COc1cc(C2c3cc(O)c(OC)cc3CC3C(=O)OCC32)ccc1O (centres unmarked) [Conidendrin] | > 12.5 µM | > 12.5 µM |  |  |  |  |  |  |  |
| COc1cc2c(O)c3c(c(-c4ccc5c(c4)OCO5)c2cc1OC)C(=O)OC3 [Diphylline] | > 12.5 µM | > 12.5 µM |  |  |  |  |  |  |  |
| Cc1cc2ccc3c(c2c(-c2ccc4c(c2)OCO4)c1CO)OCO3 [ZHU-IX-159, 3-methyl-7,8-methylenedioxy-1-(3',4'-methylenedioxyphenyl)-2-hydroxymethylenaphtalene] |  |  | 10 µM | 24.4 µM (≈ 8.21 µg/mL) | > 10 µM | 16 µM |  | > 10 µM |  |
